Laboratory results as given in ChEMBL document CHEMBL4257449, “New N-(2-phenyl-4-oxo-1,3-thiazolidin-3-yl)-1,2-benzothiazole-3-carboxamides and acetamides as antimicrobial agents” (2017).
Converted amounts (≈) assume the structure as drawn.

Legend:
[1] = tested on: Micrococcus flavus; assay: Antibacterial activity against Micrococcus flavus ATCC 10240 after 24 hrs by microdilution method; type: functional; conditions: ATCC 10240, 24 h
[2] = tested on: Salmonella typhimurium; assay: Antibacterial activity against Salmonella typhimurium ATCC 13311 after 24 hrs by microdilution method; type: functional, Salmonella enterica subsp. enterica serovar Typhimurium; conditions: Salmonella enterica, ATCC 13311, 24 h
[3] = tested on: Escherichia coli; assay: Bactericidal activity against Escherichia coli ATCC 35210 incubated for 24 hrs followed by serial sub-cultivation and measured after 24 hrs by microdilution method; type: functional
[4] = tested on: Bacillus cereus; assay: Bactericidal activity against Bacillus cereus incubated for 24 hrs followed by serial sub-cultivation and measured after 24 hrs by microdilution method; type: functional
[5] = tested on: Pseudomonas aeruginosa; assay: Bactericidal activity against Pseudomonas aeruginosa ATCC 27853 incubated for 24 hrs followed by serial sub-cultivation and measured after 24 hrs by microdilution method; type: functional
[6] = tested on: Pseudomonas aeruginosa; assay: Antibacterial activity against Pseudomonas aeruginosa ATCC 27853 after 24 hrs by microdilution method; type: functional; conditions: ATCC 27853, 24 h
[7] = tested on: Listeria monocytogenes; assay: Antibacterial activity against Listeria monocytogenes NCTC 7973 after 24 hrs by microdilution method; type: functional; conditions: NCTC 7973, 24 h
[8] = tested on: Trichoderma viride; assay: Fungicidal activity against Trichoderma viride IAM 5061 incubated for 72 hrs followed by serial sub-cultivation for 72 hrs and measured after 72 hrs by serial dilution method; type: functional
[9] = tested on: Enterobacter cloacae; assay: Antibacterial activity against Enterobacter cloacae after 24 hrs by microdilution method; type: functional
[10] = tested on: Salmonella typhimurium; assay: Bactericidal activity against Salmonella typhimurium ATCC 13311 incubated for 24 hrs followed by serial sub-cultivation and measured after 24 hrs by microdilution method; type: functional, Salmonella enterica subsp. enterica serovar Typhimurium
[11] = tested on: Penicillium ochrochloron; assay: Antifungal activity against Penicillium ochrochloron ATCC 9112 after 72 hrs by serial dilution method; type: functional; conditions: ATCC 9112, 72 h
[12] = tested on: Listeria monocytogenes; assay: Bactericidal activity against Listeria monocytogenes NCTC 7973 incubated for 24 hrs followed by serial sub-cultivation and measured after 24 hrs by microdilution method; type: functional
[13] = tested on: Aspergillus versicolor; assay: Fungicidal activity against Aspergillus versicolor ATCC 11730 incubated for 72 hrs followed by serial sub-cultivation for 72 hrs and measured after 72 hrs by serial dilution method; type: functional
[14] = tested on: Aspergillus niger; assay: Fungicidal activity against Aspergillus niger ATCC 6275 incubated for 72 hrs followed by serial sub-cultivation for 72 hrs and measured after 72 hrs by serial dilution method; type: functional
[15] = tested on: Candida albicans; assay: Antifungal activity against Candida albicans after 72 hrs by serial dilution method; type: functional
[16] = tested on: Bacillus cereus; assay: Antibacterial activity against Bacillus cereus after 24 hrs by microdilution method; type: functional
[17] = tested on: Escherichia coli; assay: Antibacterial activity against Escherichia coli ATCC 35210 after 24 hrs by microdilution method; type: functional; conditions: ATCC 35210, 24 h
[18] = tested on: Aspergillus ochraceus; assay: Antifungal activity against Aspergillus ochraceus ATCC 12066 after 72 hrs by serial dilution method; type: functional; conditions: ATCC 12066, 72 h
[19] = tested on: Candida albicans; assay: Fungicidal activity against Candida albicans incubated for 72 hrs followed by serial sub-cultivation for 72 hrs and measured after 72 hrs by serial dilution method; type: functional
[20] = tested on: Aspergillus ochraceus; assay: Fungicidal activity against Aspergillus ochraceus ATCC 12066 incubated for 72 hrs followed by serial sub-cultivation for 72 hrs and measured after 72 hrs by serial dilution method; type: functional
[21] = tested on: Micrococcus flavus; assay: Bactericidal activity against Micrococcus flavus ATCC 10240 incubated for 24 hrs followed by serial sub-cultivation and measured after 24 hrs by microdilution method; type: functional
[22] = tested on: Aspergillus fumigatus; assay: Fungicidal activity against Aspergillus fumigatus incubated for 72 hrs followed by serial sub-cultivation for 72 hrs and measured after 72 hrs by serial dilution method; type: functional
[23] = tested on: Talaromyces funiculosus; assay: Antifungal activity against Penicillium funiculosum ATCC 36839 after 72 hrs by serial dilution method; type: functional; conditions: ATCC 36839, 72 h
[24] = tested on: Aspergillus niger; assay: Antifungal activity against Aspergillus niger ATCC 6275 after 72 hrs by serial dilution method; type: functional; conditions: ATCC 6275, 72 h
[25] = tested on: Staphylococcus aureus; assay: Antibacterial activity against Staphylococcus aureus ATCC 6538 after 24 hrs by microdilution method; type: functional; conditions: ATCC 6538, 24 h
[26] = tested on: Penicillium ochrochloron; assay: Fungicidal activity against Penicillium ochrochloron ATCC 9112 incubated for 72 hrs followed by serial sub-cultivation for 72 hrs and measured after 72 hrs by serial dilution method; type: functional
[27] = tested on: Staphylococcus aureus; assay: Bactericidal activity against Staphylococcus aureus ATCC 6538 incubated for 24 hrs followed by serial sub-cultivation and measured after 24 hrs by microdilution method; type: functional
[28] = tested on: Trichoderma viride; assay: Antifungal activity against Trichoderma viride IAM 5061 after 72 hrs by serial dilution method; type: functional; conditions: IAM 5061, 72 h
[29] = tested on: Talaromyces funiculosus; assay: Fungicidal activity against Penicillium funiculosum ATCC 36839 incubated for 72 hrs followed by serial sub-cultivation for 72 hrs and measured after 72 hrs by serial dilution method; type: functional
[30] = tested on: Aspergillus fumigatus; assay: Antifungal activity against Aspergillus fumigatus after 72 hrs by serial dilution method; type: functional
[31] = tested on: Aspergillus versicolor; assay: Antifungal activity against Aspergillus versicolor ATCC 11730 after 72 hrs by serial dilution method; type: functional; conditions: ATCC 11730, 72 h
[32] = tested on: Enterobacter cloacae; assay: Bactericidal activity against Enterobacter cloacae incubated for 24 hrs followed by serial sub-cultivation and measured after 24 hrs by microdilution method; type: functional

SMILES	MIC [1] [µM]	MIC [2] [µM]	MBC99.5 [3] [×10⁻² umol/ml]	MBC99.5 [4] [×10⁻² umol/ml]	MBC99.5 [5] [×10⁻² umol/ml]	MIC [6] [µM]	MIC [7] [µM]	MFC99.5 [8] [×10⁻² umol/ml]	MIC [9] [µM]	MBC99.5 [10] [×10⁻² umol/ml]	MIC [11] [µM]	MBC99.5 [12] [×10⁻² umol/ml]	MFC99.5 [13] [×10⁻² umol/ml]	MFC99.5 [14] [×10⁻² umol/ml]	MIC [15] [µM]	MIC [16] [µM]	MIC [17] [µM]	MIC [18] [µM]	MFC99.5 [19] [×10⁻² umol/ml]	MFC99.5 [20] [×10⁻² umol/ml]	further results
O=C(NN1C(=O)CSC1c1cccc(Cl)c1)c1nsc2ccccc12 (stereo not given)	205 (≈ 79.9 µg/mL)	205 (≈ 79.9 µg/mL)	20.5	38.4	38.4	205 (≈ 79.9 µg/mL)	20.5 (≈ 7.99 µg/mL)	10.2	205 (≈ 79.9 µg/mL)	38.4	208 (≈ 81.1 µg/mL)	3.84	10.2	10.2	102 (≈ 39.8 µg/mL)	102 (≈ 39.8 µg/mL)	102 (≈ 39.8 µg/mL)	102 (≈ 39.8 µg/mL)	20.5	20.5	MBC99.5 [21]: 38.4 ×10⁻² umol/ml; MFC99.5 [22]: 76.8 ×10⁻² umol/ml; MIC [23]: 102 µM (≈ 39.8 µg/mL); MIC [24]: 77 µM (≈ 30 µg/mL); MIC [25]: 102 µM (≈ 39.8 µg/mL); MFC99.5 [26]: 38.4 ×10⁻² umol/ml; MBC99.5 [27]: 20.5 ×10⁻² umol/ml; MIC [28]: 51 µM (≈ 19.9 µg/mL); MFC99.5 [29]: 20.5 ×10⁻² umol/ml; MIC [30]: 384 µM (≈ 150 µg/mL); MIC [31]: 51 µM (≈ 19.9 µg/mL); MBC99.5 [32]: 38.4 ×10⁻² umol/ml
O=C(NN1C(=O)CSC1c1ccc(Cl)cc1)c1nsc2ccccc12 (stereo not given)	384 (≈ 150 µg/mL)	768 (≈ 299 µg/mL)	76.8	38.4	76.8	205 (≈ 79.9 µg/mL)	589 (≈ 230 µg/mL)	5.12	789 (≈ 308 µg/mL)	115.2	102 (≈ 39.8 µg/mL)	76.8	20.5	20.5	102 (≈ 39.8 µg/mL)	205 (≈ 79.9 µg/mL)	589 (≈ 230 µg/mL)	102 (≈ 39.8 µg/mL)	20.5	20.5	MBC99.5 [21]: 76.8 ×10⁻² umol/ml; MFC99.5 [22]: 38.4 ×10⁻² umol/ml; MIC [23]: 102 µM (≈ 39.8 µg/mL); MIC [24]: 102 µM (≈ 39.8 µg/mL); MIC [25]: 205 µM (≈ 79.9 µg/mL); MFC99.5 [26]: 20.5 ×10⁻² umol/ml; MBC99.5 [27]: 38.4 ×10⁻² umol/ml; MIC [28]: 25.6 µM (≈ 9.98 µg/mL); MFC99.5 [29]: 20.5 ×10⁻² umol/ml; MIC [30]: 205 µM (≈ 79.9 µg/mL); MIC [31]: 102 µM (≈ 39.8 µg/mL); MBC99.5 [32]: 115.2 ×10⁻² umol/ml
O=C(NN1C(=O)CSC1c1c(Cl)cccc1Cl)c1nsc2ccccc12 (stereo not given)	543 (≈ 230 µg/mL)	395 (≈ 168 µg/mL)	79	79	39.5	189 (≈ 80.2 µg/mL)	395 (≈ 168 µg/mL)	18.9	543 (≈ 230 µg/mL)	79	395 (≈ 168 µg/mL)	79	70.8	79	395 (≈ 168 µg/mL)	395 (≈ 168 µg/mL)	543 (≈ 230 µg/mL)	94.5 (≈ 40.1 µg/mL)	79	18.9	MBC99.5 [21]: 79 ×10⁻² umol/ml; MFC99.5 [22]: 79 ×10⁻² umol/ml; MIC [23]: 395 µM (≈ 168 µg/mL); MIC [24]: 395 µM (≈ 168 µg/mL); MIC [25]: 189 µM (≈ 80.2 µg/mL); MFC99.5 [26]: 79 ×10⁻² umol/ml; MBC99.5 [27]: 39.5 ×10⁻² umol/ml; MIC [28]: 132 µM (≈ 56 µg/mL); MFC99.5 [29]: 79 ×10⁻² umol/ml; MIC [30]: 395 µM (≈ 168 µg/mL); MIC [31]: 189 µM (≈ 80.2 µg/mL); MBC99.5 [32]: 79 ×10⁻² umol/ml
O=C(NN1C(=O)CSC1c1cccc(F)c1)c1nsc2ccccc12 (stereo not given)	214 (≈ 79.9 µg/mL)	214 (≈ 79.9 µg/mL)	21.4	40.2	80.4	214 (≈ 79.9 µg/mL)	214 (≈ 79.9 µg/mL)	10.7	214 (≈ 79.9 µg/mL)	40.2	107 (≈ 40 µg/mL)	40.2	10.7	21.4	107 (≈ 40 µg/mL)	107 (≈ 40 µg/mL)	160 (≈ 59.7 µg/mL)	292 (≈ 109 µg/mL)	21.4	40.2	MBC99.5 [21]: 40.2 ×10⁻² umol/ml; MFC99.5 [22]: 10.7 ×10⁻² umol/ml; MIC [23]: 107 µM (≈ 40 µg/mL); MIC [24]: 107 µM (≈ 40 µg/mL); MIC [25]: 107 µM (≈ 40 µg/mL); MFC99.5 [26]: 21.4 ×10⁻² umol/ml; MBC99.5 [27]: 21.4 ×10⁻² umol/ml; MIC [28]: 54 µM (≈ 20.2 µg/mL); MFC99.5 [29]: 21.4 ×10⁻² umol/ml; MIC [30]: 54 µM (≈ 20.2 µg/mL); MIC [31]: 54 µM (≈ 20.2 µg/mL); MBC99.5 [32]: 21.4 ×10⁻² umol/ml
O=C(N/N=C/c1c(F)cccc1Cl)c1nsc2ccccc12	120 (≈ 40.1 µg/mL)	60 (≈ 20 µg/mL)	24	24	48	240 (≈ 80.1 µg/mL)	240 (≈ 80.1 µg/mL)	48	60 (≈ 20 µg/mL)	12	60 (≈ 20 µg/mL)	48	12	12	240 (≈ 80.1 µg/mL)	120 (≈ 40.1 µg/mL)	120 (≈ 40.1 µg/mL)	60 (≈ 20 µg/mL)	30	12	MBC99.5 [21]: 24 ×10⁻² umol/ml; MFC99.5 [22]: 30 ×10⁻² umol/ml; MIC [23]: 30 µM (≈ 10 µg/mL); MIC [24]: 60 µM (≈ 20 µg/mL); MIC [25]: 60 µM (≈ 20 µg/mL); MFC99.5 [26]: 12 ×10⁻² umol/ml; MBC99.5 [27]: 12 ×10⁻² umol/ml; MIC [28]: 240 µM (≈ 80.1 µg/mL); MFC99.5 [29]: 6 ×10⁻² umol/ml; MIC [30]: 240 µM (≈ 80.1 µg/mL); MIC [31]: 60 µM (≈ 20 µg/mL); MBC99.5 [32]: 12 ×10⁻² umol/ml
